{"source": "patent US4518611A", "about": "“2-Furylbutyrolactone modulation of the immune system in mammals” (priority 1983, dated 1985)", "key": {"L-1210 leukemia cells": {"test_system": "L-1210 leukemia cells", "experiment": "Treatment of L-1210 leukemia in BDF1 mice (T/C ratios)", "format": "in vivo, mouse", "description": "Mice of the BDF1 strain are given in i.p. inoculation of 10^6 L-1210 leukemia cells on day 0. Twenty-four hours later, groups of 7 mice each are started on a nine day treatment regimen of various doses of the compounds of this invention. The experiment is continued according to the guidelines provided under the National Cancer Institute protocol for screening new anti-cancer agents and T/C ratios (median or mean survival time of treated groups over median or mean survival time of controls) are calculated. A T/C value ≥1.25 (or 125%) is considered significant anticancer activity.\nMice of the BDF1 strain, inoculated with L-1210 leukemia cells, are treated for seven days with either 25, 50, 100, 200 or 400 mg/kg of Cpd. 1 or just buffer. The National Cancer Institute protocol for screening new anti-cancer agents is followed and T/C ratios are calculated.\nMice of the BDF1 strain, inoculated with L-1210 leukemia cells, are treated for seven days with either 100 mg/kg of Cpd. 1, 20 mg/kg of 5-flourouracil (5-FU), a known anti-cancer agent, or just buffer. The National Cancer Institute protocol for screening new anti-cancer agents is followed and T/C ratios are calculated."}, "spleen lymphocytes [1]": {"test_system": "spleen lymphocytes", "details": "4 days", "description": "(§1) The purpose of this assay is to challenge lymphocytes in microcultures with one or more polyclonal mitogens at concentrations that will induce mitogenesis within 72 hours of stimulation.\n(§2) In the mouse model, spleens are removed from different strains of mice and the spleen cells are teased free and suspended in RPMI-1640 tissue culture medium at a concentration of usually […]. These cells are dispensed at a concentration of 5.0×10^5 cells per microculture well in a 96 well flat bottom 96 well tissue culture plate. All testing of the compounds of this invention or mitogens are done in replicates of 10. The cells are then treated with PHA, Con-A, specific antigens, or buffer only. If in vitro testing is done, varying concentrations of the compounds of this invention or buffer only are added to the cells as well. After treatment with the mitogens and/or compounds of this invention, the cells are incubated for 72 hours. The response of these cells to mitogens and/or the compounds of this invention is assessed using ^14 C-thymidine labeling on the fourth day at a concentration of 0.01 μCi/well. The labeled cells are harvested using a lymphocyte harvestor and placed onto fibrous paper discs. A scintillation cocktail is added to vials containing the discs and the results are obtained using a LKB-liquid scintillation counter (Model 1216/Rackbeta II). The data is expressed as a ratio of the cpm of the mitogen stimulated group to the control (nonmitogen) treated group=lymphocyte stimulation index (LSI).\n(§3) The lymphocyte stimulation assay may be performed directly on spleen cells obtained from various strains of mice not treated with the compounds of this invention or on lymphocytes obtained from human […]. […] Alternatively, the mice may be treated in vivo with the compounds of this invention by intraperitoneal multi-dose schedules, followed by sacrifice and harvesting spleen lymphocytes. These cells are then tested for their response to polyclonal mitogens or specific antigens used to immunize the mice. In this system however, no additional compound is added to the in vitro lymphocyte stimulation assay system.\nTwo strains of mice, C57BL/6 and BALB/c, are treated 4 days with i.p. administration of either 50, 100, 200, or 400 mg/kg of Cpd. 1, or just buffer. This is followed on the fifth day by a lymphocyte stimulation assay."}, "spleen lymphocytes [2]": {"test_system": "spleen lymphocytes", "details": "for Lymphocyte Stimulation Index, Control (no mitogen): 100 mg/kg i.p.; for effect on mitogen response (in words): 100 mg/kg", "description": "as §1, §2, §3\nThree month old mice of the SJL/J strain, which are T-cell deficient, are treated with i.p. administration of 100, 200, or 400 mg/kg of Cpd. 1 or just buffer for four days. This is followed by a lymphocyte stimulation assay.\nAn in vivo lymphocyte stimulation assay was performed on SJL/J mice of different ages, either 2, 5, or 10 months. The mice received i.p. injections of either 100 mg/kg of Cpd. 1 or just buffer."}, "C57BL/6 mice": {"test_system": "C57BL/6 mice", "details": "for Number Dead on Day 3: ten mice per dose", "description": "Single dose LD50 in C57BL/6 mice for Cpd. 1 is determined following the method of Spearman and Karber described in Basic Exercises in Immunochemistry, 1979. Briefly, 0.5 ml of each dose is given to each of ten mice. The survivors are counted after 3 days and the LD50 is calculated using the following formula: [formula] where D=fold diferences between doses, R=total number dead, and N=total number of animals tested."}}, "note": "Values joined by “and” are separate entries in the source; they are usually repeats but may differ in a detail not shown here. Identical values can stand only once. Like-named read-outs stand apart in the source and are kept apart here.", "data": [{"smiles": "Cc1ccc(C2(O)C(=O)OC3C(O)COC32O)o1.Cc1ccc(C2(O)C(=O)OC3C(O)COC32O)o1.O=C1CCC(=O)O1", "note": "(centres unmarked) [Cpd. 1, 2-furylbutyrolactone:succinic anhydride]", "values": [{"measurement": "Median Survival Time", "setting": "L-1210 leukemia cells; 25 mg/kg, seven days", "result": 20, "unit": "days"}, {"measurement": "T/C", "setting": "L-1210 leukemia cells; 25 mg/kg, seven days", "result": 1.00}, {"measurement": "Median Survival Time", "setting": "L-1210 leukemia cells; 50 mg/kg, seven days", "result": 21, "unit": "days"}, {"measurement": "T/C", "setting": "L-1210 leukemia cells; 50 mg/kg, seven days", "result": 1.05}, {"measurement": "Median Survival Time", "setting": "L-1210 leukemia cells; 100 mg/kg, seven days", "result": 30, "unit": "days"}, {"measurement": "T/C", "setting": "L-1210 leukemia cells; 100 mg/kg, seven days", "result": "1.50 and 1.40"}, {"measurement": "Median Survival Time", "setting": "L-1210 leukemia cells; 100 mg/kg, seven days (Table 25)", "result": 28}, {"measurement": "Median Survival Time", "setting": "L-1210 leukemia cells; 200 mg/kg, seven days", "result": 30, "unit": "days"}, {"measurement": "T/C", "setting": "L-1210 leukemia cells; 200 mg/kg, seven days", "result": 1.50}, {"measurement": "Median Survival Time", "setting": "L-1210 leukemia cells; 400 mg/kg, seven days", "result": 25, "unit": "days"}, {"measurement": "T/C", "setting": "L-1210 leukemia cells; 400 mg/kg, seven days", "result": 1.25}, {"measurement": "Lymphocyte Stimulation Index, Con-A", "setting": "spleen lymphocytes [1]; 50 mg/kg i.p.", "result": 20.5}, {"measurement": "Lymphocyte Stimulation Index, Control (no mitogen)", "setting": "spleen lymphocytes [1]; 50 mg/kg i.p.", "result": 1.4}, {"measurement": "Lymphocyte Stimulation Index, PHA", "setting": "spleen lymphocytes [1]; 50 mg/kg i.p.", "result": 6.44}, {"measurement": "Lymphocyte Stimulation Index, Con-A", "setting": "spleen lymphocytes [1]; 100 mg/kg i.p.", "result": 21.8}, {"measurement": "Lymphocyte Stimulation Index, Control (no mitogen)", "setting": "spleen lymphocytes [1]; 100 mg/kg i.p.", "result": 1.0}, {"measurement": "Lymphocyte Stimulation Index, PHA", "setting": "spleen lymphocytes [1]; 100 mg/kg i.p.", "result": 5.24}, {"measurement": "Lymphocyte Stimulation Index, Con-A", "setting": "spleen lymphocytes [1]; 200 mg/kg i.p.", "result": 20.5}, {"measurement": "Lymphocyte Stimulation Index, Control (no mitogen)", "setting": "spleen lymphocytes [1]; 200 mg/kg i.p.", "result": ".76"}, {"measurement": "Lymphocyte Stimulation Index, Con-A", "setting": "spleen lymphocytes [1]; 400 mg/kg i.p.", "result": 18.7}, {"measurement": "Lymphocyte Stimulation Index, Control (no mitogen)", "setting": "spleen lymphocytes [1]; 400 mg/kg i.p.", "result": ".90"}, {"measurement": "Lymphocyte Stimulation Index, PHA", "setting": "spleen lymphocytes [1]; 400 mg/kg i.p.", "result": 6.71}, {"measurement": "Lymphocyte Stimulation Index, Control (no mitogen)", "setting": "spleen lymphocytes [2]; age 2 months", "result": 2.3}, {"measurement": "Lymphocyte Stimulation Index, Control (no mitogen)", "setting": "spleen lymphocytes [2]; age 5 months", "result": 1.9}, {"measurement": "Lymphocyte Stimulation Index, Control (no mitogen)", "setting": "spleen lymphocytes [2]; age 10 months", "result": 2.1}, {"measurement": "effect on mitogen response (in words)", "setting": "spleen lymphocytes [2]; age 2 months", "result": "decreased PHA versus increased Con-A response"}, {"measurement": "effect on mitogen response (in words)", "setting": "spleen lymphocytes [2]; age 5 months", "result": "depressed mitogenesis response to both PHA and Con-A"}, {"measurement": "effect on mitogen response (in words)", "setting": "spleen lymphocytes [2]; age 10 months", "result": "significant stimulation of both the PHA and Con-A mitogenic response"}, {"measurement": "Lymphocyte Stimulation Index, Con-A", "setting": "spleen lymphocytes [2]; 400 mg/kg i.p., four days, three month old", "result": 3.30}, {"measurement": "Number Dead on Day 3", "setting": "C57BL/6 mice; 1,000 mg/kg single i.p.", "result": 0}, {"measurement": "Number Dead on Day 3", "setting": "C57BL/6 mice; 2,000 mg/kg single i.p.", "result": 0}, {"measurement": "Number Dead on Day 3", "setting": "C57BL/6 mice; 4,000 mg/kg single i.p.", "result": 7}, {"measurement": "Number Dead on Day 3", "setting": "C57BL/6 mice; 8,000 mg/kg single i.p.", "result": 10}, {"measurement": "Number Dead on Day 3", "setting": "C57BL/6 mice; 16,000 mg/kg single i.p.", "result": 10}, {"measurement": "LD50", "setting": "C57BL/6 mice; purified Cpd. 1, single i.p. injection, 4320 min", "result": "> 3000", "unit": "mg/kg"}]}]}
